Active and inactive are the calls of the source. The calls are words filed in the database; no cut-off is given here.
Columns and labels:
[1] = Toxicity in BALB/c mouse assessed as effect on spleen at 2 to 4 mg/kg, PO measured after 7 days by H and E staining based analysis; format: organism-based; details: in vivo, 168 h, dose 2-4 mg/kg, time 7 day
Mus musculus [2] = assay: Anti-inflammatory activity against LPS-induced acute lung injury mouse model assessed as downregulation of IL-6 level administered as po dose preincubated for 4 hrs followed by LPS stimulation and measured after 6 hrs by ELISA method; format: functional, organism-based; details: dose 1-2 mg/kg, time 10.0 hrs
RAW264.7 [3] = assay: Cytotoxicity against mouse RAW264.7 cells assessed as reduction in cell viability at <20 uM measured after 24 hrs by MTT assay; format: functional, cell-based
[4] = Toxicity in BALB/c mouse assessed as effect on body weight at 2 to 4 mg/kg, IG; format: organism-based; details: in vivo, po, dose 2-4 mg/kg
RAW264.7 [5] = assay: Cytotoxicity against mouse RAW264.7 cells assessed as reduction in cell viability at 50 uM measured after 24 hrs by MTT assay; format: functional, cell-based
[6] = Inhibition of quorum sensing system in Pseudomonas aeruginosa PAO1-lasB-gfp at 10 uM relative to control
RAW264.7 [7] = assay: Antiinflammatory activity in LPS-induced mouse RAW264.7 cells assessed as decrease in COX-2 expression level pretreated for 3 hrs followed by LPS stimulation and measured after 24 hrs by Western blot analysis; format: functional, cell-based; details: dose 1.25-10 µmol/L, time 27.0 hrs
RAW264.7 [8] = assay: Antiinflammatory activity in LPS-induced mouse RAW264.7 cells assessed as inhibition of TNF-alpha production pretreated for 3 hrs followed by LPS stimulation and measured after 24 hrs by ELISA method; format: functional, cell-based
[9] = Toxicity in BALB/c mouse assessed as adverse effect at 2 to 4 mg/kg, IG; format: organism-based; details: in vivo, po, dose 2-4 mg/kg
[10] = Toxicity in BALB/c mouse assessed as effect on animal health at 2 to 4 mg/kg, IG; format: organism-based; details: in vivo, po, dose 2-4 mg/kg
Mus musculus [11] = assay: Protection against LPS-induced acute lung injury mouse model assessed as inhibition of alveolar wall thickening at 1 to 2 mg/kg, po preincubated for 4 hrs followed by LPS stimulation and measured after 6 hrs by H and E staining based analysis; format: functional, organism-based; details: dose 1-2 mg/kg, time 10.0 hrs
Mus musculus [12] = assay: Anti-inflammatory activity against LPS-induced acute lung injury mouse model assessed as reduction in IL-6 mRNA expression at 1 to 2 mg/kg, po preincubated for 4 hrs followed by LPS stimulation and measured after 6 hrs; format: functional, organism-based; details: dose 1-2 mg/kg, time 10.0 hrs
Mus musculus [13] = assay: Anti-inflammatory activity against LPS-induced acute lung injury mouse model assessed as reduction in iNOS mRNA expression at 1 to 2 mg/kg, po preincubated for 4 hrs followed by LPS stimulation and measured after 6 hrs; format: functional, organism-based; details: dose 1-2 mg/kg, time 10.0 hrs
[14] = Toxicity in BALB/c mouse assessed as effect on kidney at 2 to 4 mg/kg, PO measured after 7 days by H and E staining based analysis; format: organism-based; details: in vivo, 168 h, dose 2-4 mg/kg, time 7 day
RAW264.7 [15] = assay: Antiinflammatory activity in mouse RAW264.7 cells assessed as reduction in IL-6 mRNA expression at 2.5 to 10 uM by RT-PCR analysis; format: functional, cell-based; details: dose 2.5-10 µM

With `CCCCC1(O)C2=C(C=CCC2)C(=O)N1Cc1ccc(C(F)(F)F)cc1` (stereo not given) the Activity [1] was “Non-Toxic”, the Activity (Mus musculus [2]) was “Dose-Dependent Effect” and the Activity (RAW264.7 [3]) was “inactive”. The Activity [4] was “Toxic”, the Activity (RAW264.7 [5]) was “Active” and the inhibition [6] was 51.6%. For the same compound, the Activity (RAW264.7 [7]) was “Dose-Dependent Effect”, the IC50 (RAW264.7 [8]) was 6.2 µM and the Activity [9] was “Non-Toxic”. The Activity [10] was “Non-Toxic”, the Activity (Mus musculus [11]) was “Active” and the Activity (Mus musculus [12]) was “Active”. The Activity (Mus musculus [13]) was “Active”, the Activity [14] was “Non-Toxic” and the Activity (RAW264.7 [15]) was “Active”.
